This note sets out measurements from patent US4921871A, “Enolamides, pharmaceutical compositions and methods of use thereof for treating inflammation” (Warner-Lambert Company, priority 1987, dated 1990).

Where “and” joins values, the source holds several entries; their conditions need not be identical. Identical values can stand only once. Like-named read-outs stand apart in the source and are kept apart here.

In experiment [1] the target is T1, human leukocyte 5-lipoxygenase (Homo sapiens, UniProt P09917).
T1 construct: endogenous in cells; host or cells: leukocytes from fresh human blood
T1 sequence (P09917 1-674): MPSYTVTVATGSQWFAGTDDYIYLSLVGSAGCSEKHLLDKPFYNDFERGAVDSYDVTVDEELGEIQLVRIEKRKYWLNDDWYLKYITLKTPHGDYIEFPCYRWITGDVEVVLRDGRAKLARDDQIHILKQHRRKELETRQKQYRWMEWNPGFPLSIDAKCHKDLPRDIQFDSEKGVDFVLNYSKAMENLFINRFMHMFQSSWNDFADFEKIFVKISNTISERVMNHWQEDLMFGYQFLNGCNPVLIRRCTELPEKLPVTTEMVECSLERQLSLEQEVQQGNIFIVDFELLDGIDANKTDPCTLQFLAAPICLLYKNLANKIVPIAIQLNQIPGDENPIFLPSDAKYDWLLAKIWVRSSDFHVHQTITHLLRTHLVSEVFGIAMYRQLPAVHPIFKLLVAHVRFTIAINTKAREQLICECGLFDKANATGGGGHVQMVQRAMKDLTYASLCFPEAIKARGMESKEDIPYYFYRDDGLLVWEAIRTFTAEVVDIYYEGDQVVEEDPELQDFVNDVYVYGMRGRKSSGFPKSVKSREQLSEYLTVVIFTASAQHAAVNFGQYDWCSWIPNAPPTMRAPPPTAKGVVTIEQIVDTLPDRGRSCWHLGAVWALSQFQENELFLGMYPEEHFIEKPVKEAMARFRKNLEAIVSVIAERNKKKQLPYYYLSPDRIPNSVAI
Nature of the experiment: 5-Lipoxygenase assay in human leukocytes, formation of 5-HETE (5LOA; 5LOA1 or 5LOA2 not specified). The experiment is classed as cell-based. The source says:
To Evaluate the Effect of Each Compounds as a 5-Lipoxygenase Inhibitor in Comparison to Standard Reference Agents in Human Leukocytes (5LOAl)
The purpose of this assay is to evaluate the activity of each compound as an inhibitor of human leukocyte 5-lipoxygenase.
Arachidonic acid and calcium ionophore A23l87 are obtained from Sigma (St. Louis, Mo.). Silica gel plates, GF are obtained from Analtech (Newark, Del.). Arachidonic acid, (1-^14 C) and 5-HETE (^3 H), 5 (S)-hydroxy-6-trans, 8,11,14-cis eicosatetraenoic acid, are obtained from New England Nuclear (Boston, Mass.). Six percent Dextran-70 in 0.9% NaCl is obtained from Cutter Labs (Berkeley, Calif.).
Fresh blood from normal adult men who had not received any drugs for at least the previous five days is obtained by the Community Research Clinic (WL/PD) using venipuncture and collected into heparinized vacuotainer tubes. To every 100 ml of pooled blood is added 25 ml of dextran solution (6% dextran -70 in 0.9% sodium chloride containing 3% dextrose) and this is mixed gently in a plastic cylinder. The mixture is left to stand at room temperature for at least 90 minutes. The upper layer which is rich in leukocytes and platelets is then carefully decanted into 50 ml plastic tubes and centrifuged at about 100×g for eight minutes in an IEC centrifuge and rotor number 269 (about 600 rpm). The supernatant fluid is discarded and the pellet is resuspended in 10 ml of 0.87% ammonium chloride for exactly two minutes. This procedure is to lyse completely contaminating red blood cells. Leukocytes are then separated by centrifugation for ten minutes. The pellet is washed three times by suspension in 20 ml PBS (sodium chloride, 7.1 g; Na2 HPO4, 1.15 g; KH2 PO4, 0.2 g, and KCl, 0.2 g/L) and centrifuged as before. The final pellet is suspended in PBS containing 0.87 mM CaCl2. Viability of the cells is then checked using trypan blue exclusion method and is found to be over 90%.
Leukocyte cells in suspension (0.98 ml) are incubated with or without test compounds for five minutes at 37° C. in a shaking water bath. At this time a 17 μl mixture is prepared per 1 ml of cell suspension: 100 mM arachidonic acid, 1 μl, 0.05 μCi ^14 C-arachidonic acid in 5 .rho.l; 1 mM calcium ionophore A23187, 10 μl (1). This mixture is added and the incubation continued for five minutes. The reaction is stopped by adding four volumes of absolute ethanol and the mixture is kept in ice for 30 minutes. The floculated precipitate is separated by centrifugation at about 37,000×g for 20 minutes (Beckman Instruments rotor number 40). The alcohol extract is taken to dryness under a stream of nitrogen and the residue is dissolved in 100-200 μl absolute ethanol. At the time any turbidity is removed by centrifugation. An aliquot (25-50 μl) is applied onto 20×20 cm silica gel TLC plate and developed using the following solvent system: diethyl ether, petroleum ether (2040° C.), acetic acid (50:50: 1 v/v). Zones of 1 cm apart are scraped from the TLC plate and transferred to mini-vials. Methanol (0.5 ml) is added to dissolve the radioactivity adsorbed to the silica gel and scintillation fluid (H.P., Beckman), 5 ml is then added and vials are counted in a liquid scintillation counter. A sample of ^3 H-5-HETE is applied and used for the identification of the formed 5-HETE.
Total radioactivity in the test as well as the control samples are normalized and the amount of 5-HETE present is calculated accordingly.
IC50 values are defined as the concentrations of test agents which caused a 50% inhibition of the formation of 5-HETE as compared to control and are determined by inspection of the concentration-response curves.
The formation of 5-HETE in human leukocytes is considered a measure of 5-lipoxygenase activity. The protocol is described in the following.
Fresh heparinized or EDTA treated human blood is mixed with 6% dextran-3% dextrose in isotonic saline in the ratio 0.25 ml dextran solution per 1.0 ml blood. […]

The test system of experiment [2] is Human Leukocyte Lipoxygenase. Nature of the experiment: Human Leukocyte Lipoxygenase Assay (LDA-H). It is filed as biochemical. As to conditions: for IC50: conjugated diene at 234 nm, pH 9.0, 24 °C, read-out: LDAH, concentration for 50% inhibition (IC). Here is the method: Whole blood is collected from normal volunteers and spun in a refrigerated centrifuge for four minutes at 1°-6° C. at 3800 g. The buffy coat is manually separated and washed twice with chilled 0.83% NH4 Cl and centrifuged at 1000 RPM for ten minutes at 4° C. The white cell is suspended in culture media-EMEM supplemented with 6% Agamma human serum, tricine buffer, and neomycin and recentrifuged at 1000 g to yield a pellet containing the leukocytes used for the preparation of the acetone pentane powder.
The acetone-pentane powder is prepared utilizing a modification of the procedure reported for human platelet lipoxygenase. See Siegel, et al, Arachidonate Metabolism via Lipoxygenase and 12-L-hydro-peroxy-5 Eicosatetraenoic Acid Peroxidase Sensitive to Antiinflammatory Drugs, Proc. Natl. Acad. Sci., U.S.A. 77:308, 1980 and D. P. Wallach and V. R. Brown, A Novel Preparation of Human Platlet Lipoxygenase, Biochem. Biophys. Acta. 663:361, 1981. Buffy coat prepared above is resuspended in 5-7 volumes of cold 0.1M Tris buffer, pH 7.4 containing 0.154M NaCl. The suspension is centrifuged at 13,300 g for ten minutes at 4° C. The resultant pellet is retained, resuspended in five volumes of cold acetone, recentrifuged at 13,300 g and resuspended in five volumes of cold pentane. The pentane suspension is centrifuged for ten minutes at 13,300 g to give a pellet which is dried in the cold under vacuum with periodic pulverization. The dry powder is stable for several weeks when stored at -80° C.
Enzyme stock solution is prepared in the following manner. About 15 mg of the acetone-pentane powder is suspended in 4 ml of cold tris buffer (0.1M, pH 7.4), allowed to stand for five minutes, and homogenized thoroughly. The homogenate is sonicated three times for 15 seconds each time, diluted to 7 ml with cold tris buffer (0.1M, pH 7.4), and centrifuged at 4° C. for 60 minutes at 13,300 g. The supernatent is retained and diluted to a total of 10 ml with cold tris buffer (0.1M, pH 7.4) to give the stock enzyme solution. Additional dilutions of 2-50 fold are done as necessary to locate optimal enzyme reaction rate in the assay described below.
Substrate solution is prepared at 100 μM or 1.0 μM concentrations of arachidonic acid or linoleic acid in 0.1M tris buffer, pH 9.0 containing 20% ethanol.
The enzyme reaction is followed spectrophotometrically by the appearance of a conjugated diene product at 234 nm. The reaction is monitored at 24° C. using a Gilford Model 2600 spectrophotometer. […] The effects of inhibitors on the reaction are compared with control reactions run under indentical conditions. Routinely, each compounds of the present invention is incubated with the enzyme for five minutes prior to addition of substrate to initiate the reaction. Inhibition expressed as IC50 as molar concentration of the compound required to reduce reaction rate to 50% control.

Turning to `O=C(Nc1ccc(CCc2ccc(Cl)c(Cl)c2)cc1)C(=O)c1oc2cc3ccccc3cc2c1O` [Example 113, Naphtho[2,3-b]furan-2-acetamide, N-[4-[2-(3,4-dichlorophenyl)ethyl]phenyl]-3-hydroxy-α-oxo], the “5LOA, % Inhibition” value in experiment [1] (1.00 E -5 M) is listed as 15.3%; in experiment [1] (2.00 E -5 M) it was 33.7%; in experiment [1] (5.00 E -6 M), 6.3%.

With `O=C(Nc1ccc(Cc2ccc(O)c(O)c2)cc1)C1CS(=O)(=O)c2ccccc2C1=O` (stereo not shown) [Example 14, N-[4-[(3,4-Dihydroxyphenyl)methyl]phenyl]-3,4-dihydro-4-oxo-2H-1-benzothiopyran-3-carboxamide, 1,1-dioxide], in experiment [2] (2.50 E -5 M), the “LDAH, % Inhibition” value was 0.0%.

Regarding `O=C(Nc1ccc(CCc2ccc3ccccc3c2)cc1)C1=C(O)c2ccccc2S(=O)(=O)C1` [Example 51, 4-Hydroxy-N-[4-[2-(2-naphthalenyl)ethyl]phenyl]-2H-1-benzothiopyran-3-carboxamide, 1,1-dioxide], in experiment [2] (2.50 E -5 M), the “LDAH, % Inhibition” value amounted to 0.0%.

Take `O=C(Nc1ccc(CCCc2ccc(O)c(O)c2)cc1)C1CS(=O)(=O)c2ccccc2C1=O` (stereo not shown) [Example 22]: the IC50 in experiment [2] is 13 µM.

`O=C(Nc1ccc(CCc2cc(C(F)(F)F)cc(C(F)(F)F)c2)cc1)c1sc2ccccc2c1O` [Example 148, Benzo[b]thiophene-2-carboxamide, N-[4-[2-[3,5-bis-(trifluoromethyl)phenyl]ethyl]phenyl]-3-hydroxy]: the “5LOA, % Inhibition” value in experiment [1] (2.00 E -5 M) is 19.0%; in experiment [1] (5.00 E -6 M), “+7.3%”.

As for `Cc1ccccc1CCc1ccc(NC(=O)C2=C(O)c3ccccc3S(=O)(=O)C2)cc1` [Example 43], the “LDAH, % Inhibition” value in experiment [2] (8.00 E -5 M) was 0.0%.

Consider `COc1ccccc1CCc1ccc(NC(=O)C2=C(O)c3ccccc3S(=O)(=O)C2)cc1` [Example 37], for which the “LDAH, % Inhibition” value in experiment [2] (8.00 E -5 M) is on record as 0.0%.

Turning to `Cc1ccc(CCc2ccc(NC(=O)C3CS(=O)(=O)c4ccccc4C3=O)cc2)cc1` (stereo not shown) [Example 45], the “LDAH, % Inhibition” value in experiment [2] (8.00 E -5 M) was 0.0%.

For the molecule `CCCCCCc1ccc(NC(=O)C2CS(=O)(=O)c3ccccc3C2=O)cc1` (stereo not shown) [Example 58, N-(4-Hexylphenyl)-3,4-dihydro-4-oxo-2H-1-benzothiopyran-3-carboxamide, 1-1-dioxide], the “LDAH, % Inhibition” value in experiment [2] (8.00 E -5 M) is 0.0%.

Take `CCCCCCCCCCc1ccc(NC(=O)C(=O)c2oc3cc(OC)c(OC)cc3c2O)cc1` [Example 119, 2-Benzofuranacetamide, N-[4-decylphenyl]-3-hydroxy-5,6-dimethoxy-α-oxo]: in experiment [2], the IC50 is 0.0079 µM.

As for `COc1ccc(CCc2ccc(NC(=O)C3=C(O)c4ccccc4S(=O)(=O)N3C)cc2)cc1OC` [Example 83, N-[4-[2-(3,4-Dimethoxyphenyl)ethyl)phenyl]-4-hydroxy-2-methyl-2H-1,2-benzothiazine-3-carboxamide, 1,1-dioxide], the “5LOA, % Inhibition” value is recorded as “+1.6%” in experiment [1] and 9.2% in experiment [1] (2.00 E 0 M).

For `O=C(Nc1ccc(CCc2ccc(Cl)c(Cl)c2)cc1)C(=O)C1=C(O)c2ccccc2OC1` [Example 155, 2H-1-Benzopyran-3-acetamide, N-[4-[2-(3,4-dichlorophenyl)ethyl]phenyl]-4-hydroxy-α-oxo], the “5LOA, % Inhibition” value was 10.1% in experiment [1] (2.00 E -5 M), 2.3% in experiment [1] (4.00 E -5 M) and “+7.6%” in experiment [1] (5.00 E -6 M).

Take `CCCCOc1ccc(CCc2ccc(NC(=O)C3CS(=O)(=O)c4ccccc4C3=O)cc2)cc1` (stereo not shown) [Example 48]: the “LDAH, % Inhibition” value in experiment [2] (2.50 E -5 M) is recorded as 0.0%.

For `O=C(Nc1ccc(CCc2ccc(Cl)c(Cl)c2)cc1)c1sc2ccccc2c1O` [Example 144], the results for the “5LOA, % Inhibition” value in experiment [1] (2.00 E -5 M) and in experiment [1] (5.00 E -6 M) were 42.5% and 36.0%, respectively.

Regarding `O=C(Nc1ccc(CCCCc2ccc(O)c(O)c2)cc1)C1CS(=O)(=O)c2ccccc2C1=O` (stereo not shown) [Example 23, N-[4-[4-(3,4-Dihydroxyphenyl)butyl]phenyl]-3,4-dihydro-4-oxo-2H-1-benzothiopyran-3-carboxamide, 1,1-dioxide], in experiment [2] (2.50 E -5 M), the “LDAH, % Inhibition” value is reported as 0.0%.

As to `COc1ccc(CCc2ccc(NC(=O)C(=O)C3=C(O)c4ccccc4OC3)cc2)cc1OC` [Example 152], the “5LOA, % Inhibition” value in experiment [1] (1.00 E -5 M) is 23.0%; in experiment [1] (2.00 E -5 M), 38.1% and 33.9%; in experiment [1] (4.00 E -5 M), 76.3%; in experiment [1] (8.00 E -5 M), 79.2%.

On to `CCCCCCCCCCc1ccc(NC(=O)C(=O)C2=C(O)c3ccccc3OC2)cc1` [Example 151, N-(4-Decylphenyl)-4-hydroxy-α-oxo-2H-1-benzopyran-3-acetamide], for which the “5LOA, % Inhibition” value is listed as 13.9% in experiment [1] (1.00 E -5 M) and 18.0% in experiment [1] (4.00 E -5 M).
